The source of these data is US8703792B2, “C-1 analogs of pancratistatin and 7-deoxypancratistatin and processes for their preparation” (Brock University, priority 2008, dated 2014).

In one data set the test system is leukemia P388. Description: Cancer cell line growth inhibition, leukemia P388. Type of data set: cell-based, murine. The note with it: Mus musculus, read-out: Inhibitory Activities: IC50, leukemia P388.
In data set [1] the test system is human pancreatic adenocarcinoma cancer cell line BxPC-3. Description: MTT assay, pancreas BxPC-3. Particulars: 48 hrs, read-out: Inhibitory Activities: IC50, pancreas BxPC-3. Type of data set: cell-based. The procedure: (§1) Human non-small cell lung cancer line NCI-H460 (ATCC # HTB-177) and human pancreatic adenocarcinoma cancer cell line BxPC-3 (ATCC # CRL-1687) were cultured in RPMI-1640 medium supplemented with 10% fetal bovine serum (FBS) (Gibco, Carlsbad, Calif.), 100 mg/L penicillin G and 100 mg/L streptomycin and (Cellgro, Manassas, Va.). Human prostate carcinoma cells DU-145 (ATCC # HTB-81) were cultured in Dulbecco's modified Eagle Medium (Cellgro) supplemented with 10% FBS, 100 mg/L penicillin G and 100 mg/L streptomycin. Human mammary carcinoma cells MCF-7 (ATCC # HTB-22) were cultured using Dulbecco's modified Eagle Medium supplemented with 10% FBS, 100 mg/L penicillin G, 100 mg/L streptomycin, 1.0 mM Glutamax and 1.0 mM sodium pyruvate, (Gibco).
(§2) In addition, the BxPC-3, […], DU-145 and MCF-7 lines were assessed by seeding 4×10^3 cells per well into microplates. The cells were grown for 24 hrs before treatment at concentrations ranging from 0.01 to 10 μM and incubated for 48 hrs. MTT reagent (5 mg/mL, MP Biomedical, Solon, Ohio) was added to each well and incubated further for 2 hrs. The resulting formazan crystals were dissolved in DMSO and the OD was determined at a wavelength of 490 nm. The experiments were repeated at least twice for each compound per cell line. Cells treated with 0.1% DMSO were used as a control.
(Formazan colour is commonly taken as a measure of viable cells.)

For data set [2], the system named is Human mammary carcinoma cells MCF-7. Description: MTT assay, breast MCF-7. Type of data set: cell-based. Particulars: MCF7, 48 hrs, read-out: Inhibitory Activities: IC50, breast MCF-7. The procedure:
as §1, §2

In the next data set the test system is CNS SF-268. Description: Cancer cell line growth inhibition, CNS SF-268. It counts as cell-based. Particulars: Homo sapiens, read-out: Inhibitory Activities: IC50, CNS SF-268.
Data set [3] relates to Human non-small cell lung cancer line NCI-H460. In words: MTT assay, lung-NSC NCI-H460. Type of data set: cell-based. The note with it: 48 hrs, read-out: Inhibitory Activities: IC50, lung-NSC NCl-H460. The procedure: as §1, §2
For another data set, the system named is colon KM20L2. In words: Cancer cell line growth inhibition, colon KM20L2. It counts as cell-based. The note with it: Homo sapiens, KM-20L2; read-out: Inhibitory Activities: IC50, colon KM20L2.
Data set [4] deals with Human prostate carcinoma cells DU-145. Description: MTT assay, prostate DU-145. It counts as cell-based. Particulars: 48 hrs, read-out: Inhibitory Activities: IC50, prostate DU-145. Here is the method: as §1, §2
Data set [5] concerns B-cell leukemia (Jurkat) cell line. Description: MTT assay, leukemia Jurkat. It counts as cell-based. Particulars: Homo sapiens, read-out: Inhibitory Activities: IC50, leukemia Jurkat. The procedure:
(§3) The Human neuroblastoma (SH-SY5Y) and B-cell leukemia (Jurkat) cell lines were purchased from ATCC (Manassas, Va.). Cells were maintained and grown at 37° C., 95% humidity and 5% CO2. Jurkat cells were grown with RPMI-1640 media (Sigma-Aldrich, Oakville, ON, Canada) supplemented with 10% fetal bovine serum (FBS) and 10 mg/ml Gentamycin (Gibco BRL, Mississauga, ON, Canada). SH-SY5Y cells were grown with Dulbecco's Modified Eagles Medium (DMEM) HAM F12 (Sigma-Aldrich), supplemented with 2 mM L-Glutamine, 10 mg/ml Gentamycin, and 10% FBS. Normal Human Fibroblasts (NHFs) obtained from Coriell Institute for Medical Research (New Jersey, USA) were cultured in Earle's Minimum Essential Medium (MEME) (Sigma Chemical Company, Mississauga, Ontario, Canada) completed with 15% fetal bovine serum, 2 mM L-Glutamine, 10 mg/ml Gentamycin, 1.5 g/l sodium bicarbonate, 1% vitamins, and essential (2%) and non-essential amino acids (1%) (Gibco BRL, VWR, Mississauga, ON, Canada).
(§4) To evaluate the cytotoxic effects of the C-1 derivatives of 7-deoxypancratistatin, mitochondrial dehydrogenase activities were measured. Jurkat and SH-SY5Y cells were grown and treated for 24, 48, and 72 hrs. Cells were treated with concentrations ranging from 0.25 to 10 μM of each derivative dissolved in DMSO Similarly, ncPBMCs and NHFs were treated to assess the effects of the C-1 derivatives on non-cancerous cells.

Data set [6] has as its system Human neuroblastoma (SH-SY5Y) cell line. In words: MTT assay, neuroblastoma SH-SY5Y. The note with it: read-out: Inhibitory Activities: IC50, neuroblastoma Shsy5y. It counts as cell-based. The procedure: as §3, §4
A further data set has as its system Jurkat cells. In words: Apoptosis induction (Hoechst staining, Annexin-V binding) in Jurkat cells. It counts as cell-based, human. Particulars: for Apoptotic morphology: 72 hours treatment, Hoechst staining and Annexin-V binding; for EC50: Homo sapiens, 72 hrs exposure, Hoechst staining, read-out: effective dose at which 50% of cells were apoptotic (ED50). Here is the method:
as §3
(§5) Nuclear morphology was visualized using a final concentration of 10 μM of Hoechst 33342 dye (Molecular Probes, Eugene, Oreg., USA). Phosphatidyl serine flipping, (an apoptotic biochemical marker) was visualized with Annexin-V-FITC binding assay as per manufacturer's protocol (Molecular Probes, Eugene Oreg., USA). […] Apoptotic cells were expressed as a percentage of the total number of cells counted. Standard error was calculated from at least 3 separate experiments.

The next data set relates to SH-SY5Y cells. Description: Apoptosis induction (Hoechst staining, Annexin-V binding) in SH-SY5Y cells. It counts as cell-based, human. Particulars: for Apoptotic morphology: 72 hours treatment, Hoechst staining and Annexin-V binding; for EC50: Homo sapiens, 72 hrs exposure, Hoechst staining, read-out: effective dose at which 50% of cells were apoptotic (ED50). Here is the method: as §3, §5

The subject of data set [7] is normal human fibroblasts (NHFs). In words: Apoptosis induction (Hoechst staining) in normal human fibroblasts. It counts as cell-based. Here is the method: as §3
To evaluate the cytotoxic effects of the C-1 derivatives of 7-deoxypancratistatin, mitochondrial dehydrogenase activities were measured. […]
Nuclear morphology was visualized using a final concentration of 10 μM of Hoechst 33342 dye (Molecular Probes, Eugene, Oreg., USA). […] Apoptotic cells were expressed as a percentage of the total number of cells counted. Standard error was calculated from at least 3 separate experiments.

The subject of data set [8] is non-cancerous peripheral blood mononuclear cells (ncPBMC). Description: Apoptosis induction (Hoechst staining) in non-cancerous peripheral blood mononuclear cells. Particulars: peripheral blood mononuclear cells from healthy volunteers. It counts as cell-based, human.
Excerpt: Peripheral blood was obtained from healthy non-smoking volunteers aged 25-50 years upon written and informed consent (University of Windsor REB #04-147). Whole blood samples were collected in BD Vacutainer™ Cell Preparation Tube and mononuclear cells were separated by density gradient centrifugation. The isolated cells were maintained in RPMI 1640 media supplemented and maintained as was the Jurkat culture.
as §4, §5

In brackets after ≈: the same amount, converted by molar mass. Entries after “also recorded” stand apart in the source; their conditions may differ.

As for `COC(=O)[C@H]1[C@H](O)[C@@H](O)[C@@H](O)[C@@H]2NC(=O)c3cc4c(cc3[C@H]21)OCO4`, the melting point was more than 200 °C.
On to `O=C1N[C@H]2[C@H](O)[C@H](O)[C@@H](O)[C@H](O)[C@@H]2c2cc3c(c(O)c21)OCO3` [Compound 1, pancratistatin], for which the concentration for half-maximal inhibition (IC50) with leukemia P388 is 0.039 µg/mL (≈ 0.12 µM); in data set [1], 0.028 µg/mL (≈ 0.0861 µM); in data set [2], 0.032 µg/mL (≈ 0.0984 µM); with CNS SF-268, 0.017 µg/mL (≈ 0.0523 µM); in [3], 0.048 µg/mL (≈ 0.148 µM); in the data set with colon KM20L2 it was 0.062 µg/mL (≈ 0.191 µM). Further, the 50% inhibitory concentration (IC50) was found to be 0.016 µg/mL (≈ 0.0492 µM) in data set [4], 0.163 µg/mL (≈ 0.501 µM) in data set [5] and 0.163 µg/mL (≈ 0.501 µM) in data set [6].
`CC(=O)OC[C@H]1[C@H](O)[C@@H](O)[C@@H](O)[C@@H]2NC(=O)c3cc4c(cc3[C@@H]12)OCO4` [I(c), ((1S,2S,3R,4S,4aR,11bR)-2,3,4-trihydroxy-6-oxo-1,2,3,4,4a,5,6,11b-octahydro-[1,3]dioxolo[4,5-j]phenanthridin-1-yl)methyl acetate] returned a melting point of more than 200 °C. In data set [1], the IC50 was found to be 0.11 µg/mL. In data set [2], the IC50 stood at 0.29 µg/mL. In data set [3], the IC50 stood at 0.11 µg/mL. For the same compound, in [4], the IC50 worked out at 0.37 µg/mL. Also, the IC50 in data set [5] amounted to 0.183 µg/mL. Also, the IC50 in [6] came out at 0.183 µg/mL. In addition, in the data set with Jurkat cells, the Apoptotic morphology entry is reported as “Apoptotic morphology was observed” and the EC50 worked out at 500 nM. In the data set with SH-SY5Y cells, the Apoptotic morphology entry was “Apoptotic morphology was observed” and the EC50 amounted to 0.5 µM. Moreover, the “induction of apoptosis in non-cancerous cells” value in [7] was “did not induce apoptosis; also recorded: does not induce apoptosis”. The “induction of apoptosis in non-cancerous cells” value in data set [8] is on record as “did not induce apoptosis; also recorded: does not induce apoptosis”.
`O=C1N[C@H]2[C@H](O)[C@H](O)[C@@H](O)[C@H](CO)[C@@H]2c2cc3c(cc21)OCO3` [I(d), (1S,2S,3R,4S,4aR,11bR)-2,3,4-trihydroxy-1-(hydroxymethyl)-1,2,3,4,4a, 5-hexahydro-[1,3]dioxolo[4,5-j]phenanthridin-6(11bH)-one] displayed a melting point of more than 200 °C. Besides, the IC50 in data set [1] is 0.19 µg/mL (≈ 0.588 µM). Also, the IC50 in data set [2] came to 0.65 µg/mL (≈ 2.01 µM). In [3], the half-inhibitory concentration (IC50) amounted to 0.09 µg/mL (≈ 0.278 µM). In addition, the IC50 in data set [4] was determined as 0.26 µg/mL (≈ 0.804 µM). The IC50 in data set [5] amounted to 1.61 µg/mL (≈ 5 µM). The half-maximal inhibitory concentration (IC50) in [6] was 1.61 µg/mL (≈ 5 µM). Also, in the data set with Jurkat cells, the Apoptotic morphology result is reported as “Apoptotic morphology was observed” and the EC50 was found to be 1000 nM. For the same compound, in the data set with SH-SY5Y cells, the Apoptotic morphology result was “Apoptotic morphology was observed” and the EC50 came out at 10 µM.
As to `O=C1N[C@H]2[C@H](O)[C@H](O)[C@@H](O)[C@H](O)[C@@H]2c2cc3c(cc21)OCO3` [Compound 4, 7-deoxypancratistatin], the results for the IC50 (with leukemia P388; in [3]; in the data set on colon KM20L2) were 0.44 µg/mL (≈ 1.42 µM), 0.29 µg/mL (≈ 0.938 µM) and 0.22 µg/mL (≈ 0.711 µM), respectively.

The melting point is the temperature, or range, at which the solid turns liquid. The term IC50 denotes the concentration that gives 50% inhibition.
